Measured values published in patent US20110281950A1, “COMPOSITIONS AND METHODS FOR REDUCING PROLIFERATION AND VIABILITY OF LYMPHOBLASTOID CELLS” (priority 2010, published 2011).
Like-named read-outs stand apart in the source and are kept apart here.

Assays:
Type in all cases: cell-based
[1] = tested on: NK cell-driven antibody dependent cellular cytotoxicity (ADCC) against target B cells; experiment: NK cell-driven ADCC, four hour 51Cr release assay (Example 3)
Method: (§1) The effects of AR-42 on EBV-specific cytotoxic T cell (CTL) cytotoxicity were assessed in vitro. Peripheral blood mononuclear cells (PBMC) and autologous EBV+ LCL were co-culturing in media containing IL-2 (50 μM) and either DSMO (control) or AR-42 (100 nM). EBV-specific CTLs were identified with anti-CD8 mAb and HLAB8-RAK tetramer, upon a 12 day expansion, the results of which are shown in FIG. 10. […] At day 13, the EBV-specific CTLs were incubated overnight in 100, 250, & 500 nM AR-42+IL-2 (50 μM). The next day, a four hour ^51Cr release assay was performed on each incubated sample in order to access the effects of AR-42 on EBV-specific cytotoxic T cell (CTL) cytotoxicity. This is shown schematically in FIG. 2, which illustrates autologous target EBV+ LCLs are labeled with ^51Cr, which is actively internalized by each cell via pumps in its membrane; effector CTLs are counted and plated at desired effector-target ratios; labeled targets are incubated with effectors for four hours; and lysed targets release intracellular ^51Cr into the supernatant, which is harvested and analyzed for radioactivity using a gamma counter. Effector-target ratios of 50:1, 25:1, and 12.5:1 were used.
The effects of AR-42 on NK cell-driven antibody dependent cellular cytotoxicity (ADCC) were assessed in vitro. NK cells were treated overnight with AR-42 (100 nM, 250 nM, 500 nM) or Rituximab (anti-CD20) or Herceptin (anti-erbB2). Rituximab (anti-CD20) was the antibody of choice for the assay because of its wide clinical use and proven efficacy against B cell lymphomas that express CD20 antigen. Herceptin (anti-erbB2), a commonly used breast cancer drug, was used as a negative control. The effect of AR-42 on NK cell-driven antibody dependent cellular cytotoxicity (ADCC) was assessed using a four hour ^51Cr release assay. The four hour ^51Cr release assay was performed as described with respect to Example 2A, except that effector-target ratios of 25:1, 12.5:1, & 6.25:1 were used.

Purified NK cells [2] = experiment: NK cell IFNγ ELISPOT, continuous treatment or washout (Example 7); conditions: control 569 spots
From the text: (§2) Purified NK cells in DMSO were used as a control. The cells were subsequently analyzed in an IFNγ ELISPOT assay or a ^51Cr release cytotoxicity assay.

[3] = tested on: EBV+ transformed B lymphoblastoid cell lines (EBV+ LCL); experiment: Viability of EBV+ LCL cultured with HDAC inhibitors, annexin/PI staining and flow cytometry (Example 1)
Method: Cell viability was then analyzed every 24 hours by annexin/PI staining and flow cytometry.

[4] = tested on: EBV-specific cytotoxic T cell (CTL) cytotoxicity against autologous EBV+ LCLs; experiment: EBV-specific CTL cytotoxicity, four hour 51Cr release assay (Example 2)
Method: as §1

Purified NK cells [5] = experiment: NK cell 51Cr release cytotoxicity assay, continuous treatment or washout (Example 7); conditions: control 64%
From the text: as §2

[6] = tested on: Activated EBV-specific T cells; experiment: T cell IFNγ and GzB ELISPOT (Example 4); conditions: 4 days; for T cell IFNγ secretion, ELISPOT: untreated control 98 spots; for T cell GzB secretion, ELISPOT: untreated control 107 spots
Method: The production of proteins associated with the T cell cytotoxic response (interferon-γ, granzyme B) was determined in vitro. Activated EBV-specific T cells were initially treated for 4 days (T) with 100 nM or 500 nM AR-42 and further stimulated with EBV+ LCLs (effector-target ratio: 1:1) in an ELISPOT assay to determine IFNγ and GzB secretion potentials. Release of interferon-gamma (IFNγ) or granzyme B (GzB) was visualized using monoclonal IFNγ/GzB antibodies with BCIP/NBT substrate solution. Results were quantified by an enzyme-linked immunosorbent spot assay (ELISPOT) analyzer.

EBV+ LCLs = experiment: Cell surface protein expression on EBV+ LCLs, flow cytometry (Example 8)
LCLs (C7M3, DC9) = experiment: Viability and proliferation of lymphoblastoid cell lines (Example 1A); conditions: 100, 250, 500, 750 and 1000 nM
Method: The effects of AR-42 on the viability and proliferation of lymphoblastoid cell lines was determined. […] Cell viability was analyzed by annexin/PI staining and flow cytometry. Cell counts were measured at day 5. The results are seen in FIGS. 14A and 14B. In FIGS. 14A and 14B, the standard deviation represents the results from triplicate experiments.

Purified NK cells [7] = experiment: NK cell IFNγ and GzB ELISPOT (Example 5); conditions: for NK cell GzB, ELISPOT: untreated control 91 spots; for NK cell IFNγ, ELISPOT: untreated control 314 spots
Method: Purified NK cells were initially treated overnight (NK) with 100 nM, 250 nM or 500 nM AR-42. The NK cells were further stimulated using inflammatory cytokines cytokines IL-2 (50 pM) and IL-12 (10 ng/ml) in an ELISPOT assay to determine IFNγ and GzB secretion potentials. Results were quantified by an ELISPOT analyzer.

[8] = tested on: EBV-specific CD8+ T-cells; experiment: EBV-specific T-cell expansion, RAK tetramer (Example 2A); conditions: 100, 250, 500 nM, two weeks co-culture with irradiated LCLs
Method: The effect of AR-42 on EBV-specific T-cell expansion was determined. Irradiated LCLs were added to purified PBMCs and maintained in co-culture for two weeks with AR-42 (100 nM, 250 nM, 500 nM). After two weeks, the EBV-specific T-cell expansion was measured using the RAK tetramer. This tetramer contains the […] peptide which binds the HLA-B8 MHC type I epitope, and can be used to identify EBV-specific (BZLF1 specific) CD8+ T-cells.

[9] = tested on: peripheral blood mononuclear cells (PBMCs); experiment: PBMC viability, PI staining and flow cytometry (Example 9); conditions: 100, 250, 500, 1000 nM, 2 and 4 days
Method: The effect of AR-42 on the viability of peripheral blood mononuclear cells (PBMCs) was determined. PBMCs were isolated from three random donor leukopaks and incubated with AR-42 (100 nM, 250 nM, 500 nM, 1000 nM) for 2 and 4 days. Viability was assessed by PI staining using flow cytometry. All results were normalized relative to untreated DMSO controls. […] The standard deviations in FIG. 15 represent the mean of the three leukopaks.

purified CD56+ NK cells = experiment: Cell surface protein expression on NK cells, flow cytometry (Example 8); conditions: 24 hours; for expression of activating NK cell receptor NKG2D: AR-42 100, 500 nM, SAHA 100, 1000 nM
From the text: The mechanism by which HDAC inhibition affects NK cell-driven ADCC was investigated in vitro. […] Viable cells were then collected and stained with monoclonal antibodies specific for cell surface proteins with known stimulatory (NKG2D, FcγRIII) or inhibitory (KIR) activity. Protein expression was then quantified via flow cytometry.

[10] = tested on: Activated EBV-specific T cells; experiment: T cell ELISPOT with and without AR-42 washout (Example 6); conditions: long-term exposure, 500 nM
Method: Activated EBV-specific T cells expanded in the presence of AR-42 were further incubated in media with and without AR-42. After 5 days, the T cells were stimulated with EBV+ LCLs in an ELISPOT assay to determine IFNγ and GzB secretion potentials.

Compound: rituximab: anti-CD20 antibody used for the ADCC assay
- relative ADCC ([1]; NK cells not treated with AR-42, effector-target ratio 6.25:1): 52%
- relative ADCC ([1]; NK cells not treated with AR-42, effector-target ratio 12.5:1): 56%
- relative ADCC ([1]; NK cells not treated with AR-42, effector-target ratio 25:1): 64%

Compound: CCCC(CCC)C(=O)O [valproate, reference compound]
- NK cell IFNγ secretion, ELISPOT (Purified NK cells [2]; valproate 1 mM): 446 spots
- NK cell IFNγ secretion, ELISPOT (Purified NK cells [2]; valproate 2 mM): 238 spots
- viability at 2000 µM ([3]; Lymphoblastoid cell, 72 h, 2.0 mM, day 3, read-out: viability of B cell population): 83%
- viability at 3000 µM ([3]; Lymphoblastoid cell, 72 h, 3 mM, day 3, read-out: viability of B cell population): 73%
- viability at 4000 µM ([3]; Lymphoblastoid cell, 72 h, 4.0 mM, day 3, read-out: viability of B cell population): 63%
- viability at 4000 µM ([3]; Lymphoblastoid cell, 96 h, 4 mM, day 4, read-out: viability of B cell population): 71%

Compound: CC(C)C(C(=O)Nc1ccc(C(=O)NO)cc1)c1ccccc1 (stereo not drawn) [AR-42, N-hydroxy-4-(3-methyl-2-phenyl-butyrylamino)-benzamide]
- CTL cytotoxicity ([4]; 100 nM overnight, highest effector-target ratio (50:1)): 19%
- CTL cytotoxicity ([4]; 250 nM overnight, highest effector-target ratio (50:1)): 12%
- CTL cytotoxicity ([4]; 500 nM overnight): −2%
- NK cytotoxic activity (Purified NK cells [5]; 100 nM treated, max E:T ratio): 36%
- NK cytotoxic activity (Purified NK cells [5]; 100 nM, washout): 41%
- NK cytotoxic activity (Purified NK cells [5]; 250 nM treated, max E:T ratio): 23%
- NK cytotoxic activity (Purified NK cells [5]; 250 nM, washout): 36%
- NK cytotoxic activity (Purified NK cells [5]; 500 nM treated, max E:T ratio): 1%
- NK cytotoxic activity (Purified NK cells [5]; 500 nM, washout): 42%
- T cell IFNγ secretion, ELISPOT ([6]; 100 nM): 47 spots
- T cell GzB secretion, ELISPOT ([6]; 100 nM): 99 spots
- T cell IFNγ secretion, ELISPOT ([6]; 500 nM): 3 spots
- T cell GzB secretion, ELISPOT ([6]; 500 nM): 5 spots
- Mic A/B (NKG2D ligand) expression on EBV+ LCLs (EBV+ LCLs; 500 nM and 1000 nM, 24 and 48 hours): unaffected
- MHC Class I expression (KIR ligand) on EBV+ LCLs (EBV+ LCLs; higher concentrations (500 nM and 1000 nM, 24 and 48 hours)): down modulates
- antiproliferative activity in EBV+ LCL cell lines (LCLs (C7M3, DC9)): antiproliferative activity in EBV+ LCL cell lines in a dose dependent manner
- NK cytotoxicity (ADCC) in combination with rituximab ([1]; 100 nM overnight, highest effector-target ratio (25:1)): 36%
- NK cytotoxicity (ADCC) in combination with rituximab ([1]; 250 nM overnight, highest effector-target ratio (25:1)): 23%
- NK cytotoxicity (ADCC) in combination with rituximab ([1]; 500 nM overnight): 1.1%
- NK cell GzB, ELISPOT (Purified NK cells [7]; 100 nM overnight): 22 spots
- NK cell IFNγ, ELISPOT (Purified NK cells [7]; 100 nM overnight): 63 spots
- NK cell GzB, ELISPOT (Purified NK cells [7]; 250 nM overnight): 7 spots
- NK cell IFNγ, ELISPOT (Purified NK cells [7]; 250 nM overnight): 10 spots
- NK cell GzB, ELISPOT (Purified NK cells [7]; 500 nM overnight): 10 spots
- NK cell IFNγ, ELISPOT (Purified NK cells [7]; 500 nM overnight): 1 spots
- EBV-specific T-cell expansion [8]: decreases EBV-specific T-cell expansion in a dose dependent manner
- viability of PBMCs [9]: decreases the viability of PBMCs in a dose dependent manner
- NK cell IFNγ secretion, ELISPOT (Purified NK cells [2]; AR-42 100 nM treated): 207 spots
- NK cell IFNγ secretion, ELISPOT (Purified NK cells [2]; AR-42 100 nM, 24 hour treatment+24 hour washout): 418 spots
- NK cell IFNγ secretion, ELISPOT (Purified NK cells [2]; AR-42 250 nM treated): 10 spots
- NK cell IFNγ secretion, ELISPOT (Purified NK cells [2]; AR-42 250 nM, 24 hour treatment+24 hour washout): 235 spots
- NK cell IFNγ secretion, ELISPOT (Purified NK cells [2]; AR-42 500 nM treated): 6 spots
- NK cell IFNγ secretion, ELISPOT (Purified NK cells [2]; AR-42 500 nM, 24 hour treatment+24 hour washout): 96 spots
- concentration that inhibits EBV+ LCL growth [3]: ≥ 250 nM
- viability at day 4 compared with day 2 ([3]; 750 and 1000 nM): higher viability by day 4
- viability at 0.25 µM ([3]; Lymphoblastoid cell, 48 h, 250 nM, day 2, read-out: viability of B cell population): 87%
- viability at 0.5 µM ([3]; Lymphoblastoid cell, 48 h, 500 nM, day 2, read-out: viability of B cell population): 75%
- viability at 0.75 µM ([3]; Lymphoblastoid cell, 48 h, 750 nM, day 2, read-out: viability of B cell population): 62%
- viability at 1 µM ([3]; Lymphoblastoid cell, 48 h, 1000 nM, day 2, read-out: viability of B cell population): 54%
- expression of inhibitory receptor KIR on NK cells (purified CD56+ NK cells; especially at 500 nM): down modulates
- expression of activating NK cell receptor NKG2D (purified CD56+ NK cells): down modulate
- cytotoxic function of activated T cells [10]: eventual loss of cytotoxic function

Compound: O=C(CCCCCCC(=O)Nc1ccccc1)NO [SAHA, suberoylanilide hydroxamic acid, reference compound]
- NK cell IFNγ secretion, ELISPOT (Purified NK cells [2]; SAHA 100 nM treated): 452 spots
- NK cell IFNγ secretion, ELISPOT (Purified NK cells [2]; SAHA 500 nM treated): 366 spots
- NK cell IFNγ secretion, ELISPOT (Purified NK cells [2]; SAHA 1000 nM treated): 166 spots
- B cell death ([3]; 250-2000 nM, 4 day incubation): little cell death
- viability at 4 µM ([3]; Lymphoblastoid cell, 96 h, 4000 nM, day 4, read-out: viability of B cell population): 69%
- expression of activating NK cell receptor NKG2D (purified CD56+ NK cells): down modulate
